Results reported in article PMC11819963, “In Vitro CO-Releasing and Antioxidant Properties of Sulfonamide-Based CAI-CORMs in a H2O2-Stimulated Human Achilles Tendon-Derived Cell Model” (Molecules, 2025).

What was measured:
[1] = system: H2O2-stimulated human Achilles tendon-derived tenocytes; assay: collagen type I secretion (ELISA); format: cell-based; details: 48 h, after H2O2 100 µM for 3 h, compared to untreated cells, normalised on MTT
Protocol: (§1) Compound A and acetazolamide were administered as reference compounds.
Amounts of collagen type I secreted in supernatants harvested from 96 well plates were detected by a human collagen type 1 ELISA kit (Cosmo Bio Co., Ltd., Tokyo, Japan; cat. no. ACE-EC1-E105-EX). Samples were pipetted into suitably coated wells as described elsewhere. Each ELISA test was performed three times in duplicates per experimental condition (n = 6). The concentration of collagen type I (µg/mL) was calculated using a standard curve generated with a specific standard provided by the manufacturer by means of the Prism 5.0 software (GraphPad, San Diego, CA, USA).

[2] = system: Human Achilles tendon-derived tenocytes; assay: cell metabolic activity (MTT test), basal conditions; format: cell-based; details: 6.25–50 µM; for cell metabolic activity (MTT): vs untreated control
Protocol: (§3) Human Achilles tendon-derived tenocytes (#TEN-F) were purchased by ZenBio Inc. (Durham, NC, USA) and maintained in complete alpha-MEM (EuroClone, Milan, Italy) supplemented with 10% of heat-inactivated FBS (Gibco, Thermo Fisher Scientific, Waltham, MA, USA) and 1% penicillin/streptomycin (EuroClone, Milan, Italy) at 37 °C and 5% CO2 and used from passage 3 up to passage 6.
(§4) Cells were seeded in 96-well plates (0.5 × 10^4/well) or 6-well plates (0.5 × 10^5/well) (ThermoFisher Scientific, Waltham, MA, USA) and left to adhere overnight at 37 °C and 5% CO2. For cell metabolic activity experiments (MTT test), tenocytes were treated with increasing concentrations of compounds (range 0–50 µM) for 24 and 48 h. Compounds were dissolved in DMSO to obtain a 200 mM stock solution, and they were afterwards diluted in complete alpha-MEM (DMSO final concentration = 0.1%) for further analyses. In a second set of MTT experiments, tenocytes were pre-incubated with 100 µM H2O2 for 3 h. After that, the pre-incubation medium was discarded and replaced with a fresh one containing the proper compound at increasing concentrations for 24 and 48 h. At the established time points, samples were processed for further analyses.
(§5) Tenocytes were seeded in 96 well tissue culture-treated plates (Falcon®, Corning Incorporated, Brooklyn, NY, USA) at 0.5 × 10^4 cells/well. Untreated cells (0 µM) were set as control (100% of cell metabolic activity). At the established time points, the exposure media were replaced by fresh medium containing 3-(4,5-dimethylthiazol-2-yl)-2,5-diphenyltetrazolium bromide (MTT) 0.5 mg/mL (Merck, Darmstadt, Germany) and processed as elsewhere reported [18]. The optical density in each well was measured using a spectrophotometer (Thermo Fisher Scientific, Waltham, MA, USA) at a wavelength of 540 nm. Each experiment was performed three times in triplicates per experimental condition (n = 9).

[3] = system: H2O2-stimulated human Achilles tendon-derived tenocytes; assay: cell cycle analysis by flow cytometry (propidium iodide); format: cell-based; details: 48 h, after H2O2 100 µM for 3 h
Protocol: as §1
The progression of the cell cycle was assessed by flow cytometry, as already reported. Briefly, after the pre-incubation with H2O2 (100 µM for 3 h) and the exposure time (48 h), approximately 0.5 × 10^5 cells/experimental condition were fixed with cold ethanol 70% v/v and afterwards stained with 1 mg/mL propidium iodide (PI) (final concentration 10 µg/mL) and 10 mg/mL RNAse (final concentration 100 µg/mL) and kept overnight at 4 °C in the dark. Each experiment was performed two times in triplicates per experimental condition (n = 6). Cell cycle profiles (1 × 10^4 events/sample) were finally analysed with a CytoFLEX flow cytometer (Beckman Coulter, Indianapolis, IN, USA), and data were quantified using the ModFit LT™ 4.0 software (De Novo Software, Glendale, CA, USA).

[4] = system: reduced myoglobin (deoxy-Mb); assay: myoglobin carbonylation assay (CO release); design: species or system horse; details: for CO-release profile (MbCO formed over time): 1:1 and 1:6 CORM:Mb, up to 300 min, comparison within series; for MbCO formed: after 210 min of incubation, 1:1 CORM–Mb ratio (about 20 μM CORM)
Protocol: To determine the CO-releasing properties of the designed compounds, the myoglobin carbonylation assay was employed, with some deviations from the standard protocol, as previously reported. The analysed compounds were incubated with reduced myoglobin (deoxy-Mb), and spectra were recorded every 30 min up to 300 min. The release of CO was assessed by evaluating the formation of carbonylated myoglobin (Mb-CO) over time (Figure 3). […] The releasing properties of the compounds were also expressed as CO units released after 300 min of incubation with Mb, as reported in Figure S1 (Supplementary Information File).
All the employed reagents were of analytical grade and acquired from Merck (Milan, Italy). Gaseous CO was obtained from Rivoira (Milan, Italy). A Shimadzu UV1900 UV-Vis Spectrophotometer from 275 to 700 nm at the scanning rate of 200 nm/min was used to record UV-Vis absorption spectra in a disposable plastic cuvette (path length 0.44 cm). The second derivative spectra were generated with the Origin Lab software, and the Savitzky–Golay method was applied using 25 data points for the differentiation process. Neither an increase nor a decrease in the number of points caused changes in the wavelength or in the bandwidth. Lyophilised horse heart Mb was dissolved in phosphate-buffered saline flushed with N2 (PBS, 0.01 M, pH 7.4 to a 20–22 μM final concentration). Two millilitres of this freshly prepared stock solution were placed in a cuvette to record the UV-Vis absorption spectrum of met-Mb. Next, the solutions were divided into two halves: 10 μL of sodium dithionite (30 mg/mL) was added to the first half (reference), and the UV–Vis spectrum of deoxy-Mb was registered. After that, the solution was flushed with CO gas, and the Mb-CO spectrum was acquired. Sodium dithionite was added to the second half (sample), and a spectrum was recorded. Afterwards, a CORM DMSO solution was added to a final CORM concentration of 1.67 μM, 3.33 μM or 20 μM and gently mixed. The solution was covered with 300 μL of light mineral oil to avoid CO escaping and oxygenation of Mb, and the absorption spectrum was recorded at t = 0. Spectra were acquired every 30 min for 300 min, keeping the sample at 37 °C. When necessary, a freshly prepared sodium dithionite solution was added. After 300 min, the total Mb concentration at the end of the assay was determined by flushing the sample with CO gas. Mb-CO concentration at each time point was determined, as previously reported. Each experiment was replicated three times, and the data were expressed as mean ± SEM.

[5] = system: H2O2-stimulated human Achilles tendon-derived tenocytes; assay: cell metabolic activity (MTT test), pre-incubation with H2O2; format: cell-based; details: 6.25–50 µM, after H2O2 100 µM for 3 h
Protocol: as §3, §4, §5

hCA XII = hCA XII (Homo sapiens, UniProt O43570); assay: stopped-flow CO2 hydrase assay, hCA XII; format: biochemical; details: mean from three assays, errors ±5–10%
Chain of hCA XII (O43570 25-354): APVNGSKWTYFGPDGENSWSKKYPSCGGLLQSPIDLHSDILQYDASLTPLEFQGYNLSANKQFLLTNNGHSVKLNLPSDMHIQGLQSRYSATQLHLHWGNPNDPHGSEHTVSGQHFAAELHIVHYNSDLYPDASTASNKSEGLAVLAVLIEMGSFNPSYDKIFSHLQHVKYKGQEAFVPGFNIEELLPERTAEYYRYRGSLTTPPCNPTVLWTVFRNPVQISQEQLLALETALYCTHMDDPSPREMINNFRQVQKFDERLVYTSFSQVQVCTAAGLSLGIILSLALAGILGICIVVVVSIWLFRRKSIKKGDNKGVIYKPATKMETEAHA
Protocol: (§2) The CO2 concentrations ranged from 1.7 to 17 mM for the determination of the kinetic parameters and inhibition constants. […] The uncatalysed rates were determined in the same manner and subtracted from the total observed rates. […] The inhibition constants were obtained by non-linear least-squares methods using PRISM 3 and the Cheng–Prusoff equation and represent the mean from at least three different determinations.

hCA IX = hCA IX (Homo sapiens, UniProt Q16790); assay: stopped-flow CO2 hydrase assay, hCA IX; format: biochemical; details: mean from three assays, errors ±5–10%
Protocol: as §2

Compound	cell metabolic activity (MTT) ([2]; 48 h exposure)	cell metabolic activity (MTT) ([5]; 24 h exposure)	cell metabolic activity (MTT) ([5]; 48 h exposure)	MbCO formed [4] [µM]	also measured
C#CCNc1ccc(S(N)(=O)=O)cc1 [A, 4-(prop-2-ynylamino)benzenesulfonamide, reference compound]	still ineffective	–	–	–	collagen type I secretion [1]: do not enhance the secretion; cell cycle progression (H2O2-induced G2 increase) [3]: ineffective
CCC#CCNc1ccc(S(N)(=O)=O)cc1.[C-]#[O+].[C-]#[O+].[C-]#[O+].[C-]#[O+].[C-]#[O+].[C-]#[O+].[Co].[Co] [3a, 4-(pent-2-yn-1-ylamino)benzenesulfonamide hexacarbonyldicobalt]	–	–	–	–	CO-release profile (MbCO formed over time) [4]: superimposable profile of MbCO formed over time; cytotoxicity (MTT) ([5]; 24 h exposure): cytotoxic at the highest concentrations used; cytotoxicity (MTT) ([2]; 24 h exposure): reveal cytotoxicity
CC#CCN(CC#CC)c1ccc(S(N)(=O)=O)cc1.[C-]#[O+].[C-]#[O+].[C-]#[O+].[C-]#[O+].[C-]#[O+].[C-]#[O+].[Co].[Co] [2c, 4-(Di(but-2-yn-1-yl)amino)benzenesulfonamide hexacarbonyldicobalt]	constantly effective on cell metabolic activity over the concentrations	best test compounds able to increase cell metabolic activity	the best compound in terms of cell metabolic activity increase	–	cell metabolic activity (MTT) ([2]; 24 h exposure): significantly increase cell metabolic activity
C#CCN(CC#C)c1ccccc1.[C-]#[O+].[C-]#[O+].[C-]#[O+].[C-]#[O+].[C-]#[O+].[C-]#[O+].[Co].[Co] [CO-C, N,N-di(prop-2-yn-1-yl)aniline hexacarbonyldicobalt, reference compound]	extremely active in terms of cell metabolic activity increase	capable of increasing cell metabolic activity	increase cell metabolic activity only at 50 µM	3.72	–
4-(Diprop-2′-ynylamino)benzenesulfonamide hexacarbonyldicobalt [1c]	constantly effective on cell metabolic activity over the concentrations	–	–	3.66	CO units released ([4]; after 300 min of incubation with Mb, 1:12 CORM:Mb ratio (1.67 μM CORM), 37 °C): 2.3 CO units; collagen type I secretion [1]: weakly but significantly increases collagen type 1 secretion; Ki (hCA XII): 7.5 nM; Ki (hCA IX): 6.2 nM; cell cycle progression (H2O2-induced G2 increase) [3]: weakly but significantly counteract the H2O2-induced G2 increase
C#CCOc1ccccc1.[C-]#[O+].[C-]#[O+].[C-]#[O+].[C-]#[O+].[C-]#[O+].[C-]#[O+].[Co].[Co] [CO-B, (Prop-2-yn-1-yloxy)benzene hexacarbonyldicobalt, reference compound]	extremely active in terms of cell metabolic activity increase	capable of increasing cell metabolic activity	can increase cell metabolic activity over the concentration range	4	–
CCC#CCN(CC#CCC)c1ccc(S(N)(=O)=O)cc1.[C-]#[O+].[C-]#[O+].[C-]#[O+].[C-]#[O+].[C-]#[O+].[C-]#[O+].[Co].[Co] [3c, 4-(Di(pent-2-yn-1-yl)amino)benzenesulfonamide hexacarbonyldicobalt]	–	–	–	–	cytotoxicity (MTT) ([2]; 48 h exposure): cytotoxic, already at the lowest concentration
C#CCOc1ccc(S(N)(=O)=O)cc1 [B, 4-(prop-2′-ynyloxy)benzenesulfonamide, reference compound]	still ineffective	–	–	–	–
C#CCNc1ccccc1.[C-]#[O+].[C-]#[O+].[C-]#[O+].[C-]#[O+].[C-]#[O+].[C-]#[O+].[Co].[Co] [CO-A, N-(prop-2-yn-1-yl)aniline hexacarbonyldicobalt, reference compound]	extremely active in terms of cell metabolic activity increase	capable of increasing cell metabolic activity	increase cell metabolic activity only at 50 µM	8.1	–
CC(=O)Nc1nnc(S(N)(=O)=O)s1 [AAZ, acetazolamide, reference compound]	still ineffective	–	–	–	cytotoxicity (MTT) ([5]; 24 h exposure): cytotoxicity at the highest dose; cytotoxicity (MTT) ([5]; 48 h exposure): cytotoxic at the highest concentration; collagen type I secretion [1]: do not enhance the secretion; cell cycle progression (H2O2-induced G2 increase) [3]: ineffective
CCC#CCOc1ccc(S(N)(=O)=O)cc1.[C-]#[O+].[C-]#[O+].[C-]#[O+].[C-]#[O+].[C-]#[O+].[C-]#[O+].[Co].[Co] [3b, 4-(Pent-2-yn-1-yloxy)benzenesulfonamide hexacarbonyldicobalt]	–	–	–	–	cytotoxicity (MTT) ([2]; 48 h exposure): cytotoxic, already at the lowest concentration
CC#CCNc1ccc(S(N)(=O)=O)cc1.[C-]#[O+].[C-]#[O+].[C-]#[O+].[C-]#[O+].[C-]#[O+].[C-]#[O+].[Co].[Co] [2a, 4-(but-2-yn-1-ylamino)benzenesulfonamide hexacarbonyldicobalt]	increases tenocyte metabolic activity to a lesser extent than 1a	best test compounds able to increase cell metabolic activity	–	–	CO-release profile (MbCO formed over time) [4]: superimposable profile of MbCO formed over time; cell metabolic activity (MTT) ([2]; 24 h exposure): significantly increase cell metabolic activity; cytotoxicity (MTT) ([2]; 48 h exposure): biocompatible
